Measurements from paper PMC8070144, “The YfkO Nitroreductase from Bacillus Licheniformis on Gold-Coated Superparamagnetic Nanoparticles: Towards a Novel Directed Enzyme Prodrug Therapy Approach” (Pharmaceutics, 2021).

Legend:
NfnB-cys [1] = biological target: T1, NfnB-cys (Escherichia coli, UniProt P38489); experiment: UV-Vis spectra with time, NADH oxidation at […] nm; assay type: biochemical; settings: free enzyme; CB1954 100 µM; 50 mM phosphate pH 7.2; methods print NADPH, results print NADH
T1 construct: gene nfsB; recombinant, pET28a(+) in E. coli Rosetta BL21(DE3) (printed B21 DE3); N-terminal Cys tag and His tag kept; Ni IMAC, FMN-saturated, PD10 desalted
T1 sequence (P38489 whole entry): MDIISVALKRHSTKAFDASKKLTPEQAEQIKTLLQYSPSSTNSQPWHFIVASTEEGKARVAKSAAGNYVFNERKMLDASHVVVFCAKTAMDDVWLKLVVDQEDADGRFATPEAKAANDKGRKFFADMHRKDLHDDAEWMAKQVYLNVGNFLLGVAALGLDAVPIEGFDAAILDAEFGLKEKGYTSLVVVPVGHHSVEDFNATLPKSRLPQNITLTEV

YfkO-cys = tested on: T2, YfkO-cys; experiment: absorbance at […] nm, hydroxylamine product formation, plate reader; assay type: biochemical, Bacillus licheniformis; settings: free enzyme; NADH 400 µM; 50 mM phosphate pH 7.2; 37 °C; CB1954 0.1-10 mM
T2 construct: recombinant, pET28a(+) in E. coli Rosetta BL21(DE3) (printed B21 DE3); N-terminal Cys tag and His tag kept; Ni IMAC, FMN-saturated, PD10 desalted

NfnB-cys [2] = biological target: T1, NfnB-cys; experiment: UV-Vis spectra with time, product at […] nm; assay type: biochemical; settings: free enzyme; CB1954 100 µM; 50 mM phosphate pH 7.2; cofactor NADH in results (NADPH 300 µM in methods)

SMILES | UV-Vis spectra with time, NADH oxidation at 340 nm (NfnB-cys [1]) | Km (YfkO-cys) [µM] | UV-Vis spectra with time, product at 420 nm (NfnB-cys [2])
NC(=O)C1=CN([C@@H]2O[C@H](COP(=O)(O)OP(=O)(O)OC[C@H]3O[C@@H](n4cnc5c(N)ncnc54)[C@H](O)[C@@H]3O)[C@@H](O)[C@H]2O)C=CC1 [NADH] | scans obtained for NfnB-cys, free and immobilised, were almost identical to these |  | 
NC(=O)c1cc(N2CC2)c([N+](=O)[O-])cc1[N+](=O)[O-] [compound 1, 5-(aziridin-1-yl)-2,4-dinitrobenzamide] |  | 830 ± 250 | scans obtained for NfnB-cys, free and immobilised, were almost identical to these
